# Numbered stars: 1 amine (or outer) side, 2 acyl side, 3 side chain; on linkers, the order of the positions; unused ones are H or OH. Square brackets hold non-standard residues; d marks the D form. Peptide text beside a SMILES is read from it. * marks the point of attachment. DOTA = O=C(O)CN1CCN(CC(=O)O)CCN(CC(=O)*)CCN(CC(=O)O)CC1; Gly(N-(3-F-4-Me-benzyl)) = Cc1ccc(CNCC(=O)*)cc1F; Gly(Nα-4-MeO-benzyl) = COc1ccc(CNCC(=O)*)cc1; X4 = O=C(c1ccc(-c2ccccc2OCCCN[*:1])cc1)[*:2]; Trx = NC[C@H]1CC[C@H](C(=O)O)CC1; 4Pal = N[C@@H](Cc1ccncc1)C(=O)O; d4Pal = N[C@H](Cc1ccncc1)C(=O)O; Cha = N[C@@H](CC1CCCCC1)C(=O)O; 4Abz = Nc1ccc(C(=O)O)cc1; Api = NC1(C(=O)O)CCNCC1; Ahx = NCCCCCC(=O)O; azaGly = NNC(=O)O
# Molecular target: human kisspeptin receptor (Homo sapiens (Human), UniProt Q969F8)
# Test: Human KISS1R binding assay (membrane competition binding)
# Details: 90 min at room temperature; competition with 0.2 nM [125I]-metastin (45-54); Flp-In T-Rex 293 kisspeptin membranes; metal complexes nonradioactive Ga, In, Lu; read-out: hKiSSR Binding Ki (90 min)
# Summary of the method: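 Radioligand competition: 0.2 nM [125I]-metastin (45-54) displaced by test ligand (usually 0–10,000 nM) over 90 min at room temperature, pH 7.4 buffer with 0.1% BSA. Receptor source is crude membrane (5–10 μg) from tetracycline-induced Flp-In T-Rex 293 cells. Bound label filtered and counted; Ki from non-linear regression.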
# human kisspeptin receptor, sequence (Q969F8 whole entry): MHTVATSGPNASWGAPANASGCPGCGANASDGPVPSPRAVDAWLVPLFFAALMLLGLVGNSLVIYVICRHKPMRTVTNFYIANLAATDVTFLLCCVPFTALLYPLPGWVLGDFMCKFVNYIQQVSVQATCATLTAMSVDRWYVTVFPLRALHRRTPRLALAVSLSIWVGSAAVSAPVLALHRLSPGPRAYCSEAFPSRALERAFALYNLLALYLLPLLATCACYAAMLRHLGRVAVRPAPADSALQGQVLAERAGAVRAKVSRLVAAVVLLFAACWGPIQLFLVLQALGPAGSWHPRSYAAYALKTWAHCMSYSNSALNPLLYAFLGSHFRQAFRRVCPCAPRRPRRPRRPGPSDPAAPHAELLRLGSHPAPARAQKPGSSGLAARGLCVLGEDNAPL
row,Ki,SMILES
1,> 100 nM,Cc1ccc(CNCC(=O)N2CCC(NC(=O)[C@H](CC(C)C)NC(=O)NNC(=O)[C@H](Cc3ccccc3)NC(=O)[C@H]3CC[C@H](CNC(=O)CCCCCNC(=O)CN4CCN(CC(=O)O)CCN(CC(=O)O)CCN(CC(=O)O)CC4)CC3)(C(=O)N[C@@H](Cc3c[nH]c4ccccc34)C(N)=O)CC2)cc1F [Compound 38] ({DOTA-Ahx-Trx}-F[azaGly]L[Api](Gly(N-(3-F-4-Me-benzyl)))W-NH2)
2,< 10 nM,Cc1ccc(CNCC(=O)N2CCC(NC(=O)[C@H](CC(C)C)NC(=O)NNC(=O)[C@H](Cc3ccccc3)NC(=O)[C@@H](NC(=O)[C@H](CC(N)=O)NC(=O)[C@@H](Cc3ccncc3)NC(=O)CCCCCNC(=O)CN3CCN(CC(=O)O)CCN(CC(=O)O)CCN(CC(=O)O)CC3)[C@@H](C)O)(C(=O)N[C@@H](Cc3c[nH]c4ccccc34)C(N)=O)CC2)cc1F [Compound 296] ({DOTA-Ahx}-[d4Pal]NTF[azaGly]L[Api](Gly(N-(3-F-4-Me-benzyl)))W-NH2)
3,< 10 nM,COc1ccc(CNCC(=O)N2CCC(NC(=O)[C@H](CC(C)C)NC(=O)NNC(=O)[C@H](Cc3ccccc3)NC(=O)[C@@H](NC(=O)[C@H](CC(N)=O)NC(=O)[C@@H](Cc3ccncc3)NC(=O)[C@@H](Cc3ccc(O)cc3)NC(=O)CCCCCNC(=O)CN3CCN(CC(=O)O)CCN(CC(=O)O)CCN(CC(=O)O)CC3)[C@@H](C)O)(C(=O)N[C@@H](Cc3ccncc3)C(N)=O)CC2)cc1 [Compound 299] ({DOTA-Ahx}-[dY][d4Pal]NTF[azaGly]L[Api](Gly(Nα-4-MeO-benzyl))[4Pal]-NH2)
4,< 10 nM,Cc1ccc(CNCC(=O)N2CCC(NC(=O)[C@H](CC(C)C)NC(=O)NNC(=O)[C@H](Cc3ccccc3)NC(=O)[C@@H](NC(=O)[C@H](CC(N)=O)NC(=O)[C@@H]3CCCN3C(=O)[C@@H](Cc3ccc(O)cc3)NC(=O)CCCCCNC(=O)CN3CCN(CC(=O)O)CCN(CC(=O)O)CCN(CC(=O)O)CC3)[C@@H](C)O)(C(=O)N[C@@H](Cc3c[nH]c4ccccc34)C(N)=O)CC2)cc1F [Compound 20] ({DOTA-Ahx}-[dY]PNTF[azaGly]L[Api](Gly(N-(3-F-4-Me-benzyl)))W-NH2)
5,< 10 nM,CC(=O)N[C@H](Cc1ccc(O)cc1)C(=O)N[C@H](Cc1c[nH]c2ccccc12)C(=O)N[C@@H](CC(N)=O)C(=O)N[C@H](C(=O)N[C@@H](CC1CCCCC1)C(=O)NNC(=O)N[C@@H](CC(C)C)C(=O)NC1(C(=O)N[C@@H](Cc2c[nH]c3ccccc23)C(N)=O)CCN(C(=O)CNCc2ccc(C)c(F)c2)CC1)[C@@H](C)O [Compound 391] (Ac-[dY][dW]NT[Cha][azaGly]L[Api](Gly(N-(3-F-4-Me-benzyl)))W-NH2)
6,< 10 nM,CSCC[C@H](NC(=O)c1ccc(CNC(=O)CN2CCN(CC(=O)O)CCN(CC(=O)O)CCN(CC(=O)O)CC2)cc1)C(=O)N[C@@H](Cc1c[nH]c2ccccc12)C(=O)N[C@@H](CCCCNC(=O)CCCCC(=O)N[C@@H](CC(N)=O)C(=O)N[C@H](C(=O)N[C@@H](Cc1ccccc1)C(=O)NNC(=O)N[C@@H](CC(C)C)C(=O)NC1(C(=O)N[C@@H](Cc2c[nH]c3ccccc23)C(N)=O)CCN(C(=O)CNCc2ccc(C)c(F)c2)CC1)[C@@H](C)O)C(=O)O [Compound 168]

row,SMILES,Ki
1,Cc1ccc(CNCC(=O)N2CCC(NC(=O)[C@H](CC(C)C)NC(=O)NNC(=O)[C@H](Cc3ccccc3)NC(=O)c3ccc(NC(=O)CN4CCN(CC(=O)O)CCN(CC(=O)O)CCN(CC(=O)O)CC4)cc3)(C(=O)N[C@@H](Cc3c[nH]c4ccccc34)C(N)=O)CC2)cc1F [Compound 50] ({DOTA-4Abz}-F[azaGly]L[Api](Gly(N-(3-F-4-Me-benzyl)))W-NH2),< 10 nM
2,Cc1ccc(CNCC(=O)N2CCC(NC(=O)[C@H](CC(C)C)NC(=O)NNC(=O)c3ccc(-c4ccccc4OCCCNC(=O)CCCCCNC(=O)CN4CCN(CC(=O)O)CCN(CC(=O)O)CCN(CC(=O)O)CC4)cc3)(C(=O)N[C@@H](Cc3c[nH]c4ccccc34)C(N)=O)CC2)cc1F [Compound 297] ({DOTA-Ahx}-[X4][azaGly]L[Api](Gly(N-(3-F-4-Me-benzyl)))W-NH2),< 10 nM
